Experiments:
[1] = target: T1, human E3 ubiquitin-protein ligase RNF31 (HOIP) (Homo sapiens, UniProt Q96EP0); assay: Cell-free HTRF-based HOIP inhibition assay; type: biochemical
T1 sequence (Q96EP0 695-1072 limits assumed): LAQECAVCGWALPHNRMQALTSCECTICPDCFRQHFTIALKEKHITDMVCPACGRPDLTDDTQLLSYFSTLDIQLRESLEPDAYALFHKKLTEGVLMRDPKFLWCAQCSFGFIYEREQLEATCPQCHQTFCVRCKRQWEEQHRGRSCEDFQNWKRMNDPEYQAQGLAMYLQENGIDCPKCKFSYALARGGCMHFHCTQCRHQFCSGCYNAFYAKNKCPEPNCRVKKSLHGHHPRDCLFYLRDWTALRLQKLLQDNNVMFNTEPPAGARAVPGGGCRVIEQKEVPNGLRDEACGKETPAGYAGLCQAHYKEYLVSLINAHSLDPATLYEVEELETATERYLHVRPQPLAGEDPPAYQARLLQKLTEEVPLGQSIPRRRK
Summary of the method: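 HTRF read (ex 337 nm; em 665 and 620 nm) after a 2.5 h, 25° C. ubiquitination step started by adding E2 plus substrates. Before that, E. coli-expressed human HOIP fragment and E1 were incubated 1 h at 25° C. with compound at 100-0.005 μM, 1% DMSO final.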

[2] = system: bladder carcinoma RT4 cell line; assay: TNF-α-induced cytotoxicity assay (CellTiter-Glo viability); type: cell-based; details: Homo sapiens, RT-4, 72 h
Summary of the method: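 RT4 bladder carcinoma cells, 1000 per well, stimulated with 1.25 ng/mL TNFα together with compound for 72 h at 37° C., 5% CO2. Viability read by CellTiter-Glo luminescence, proportional to cellular ATP, as a measure of HOIP-dependent cytotoxicity.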

NF-κB signaling pathway = assay: Cell-based dual luciferase NF-κB reporter assay (HEK293 cells, TNF stimulated); details: Homo sapiens, HEK293
Summary of the method: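 HEK293 cells transfected with Firefly luciferase and NF-κB-response-element NanoLuc plasmids; compounds at 100–0.005 µM in 1% DMSO. Cells stimulated with 2.5 ng/mL TNF 30 min after compound addition. Firefly and NanoLuc activities read after 6 h by Nano-Glo dual-luciferase detection.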

SMILES: O=C(NC/C=C/S(=O)(=O)c1ccccc1)c1cc2c([nH]c1=O)CCN(C(=O)OC1COC1)C2 [Example 67, oxetan-3-yl 3-{[(2E)-3-(benzenesulfonyl)prop-2-en-1-yl]carbamoyl}-2-oxo-1,2,5,6,7,8-hexahydro-1,6-naphthyridine-6-carboxylate]
- IC50 [1]: ≤ 1000 nM
- IC50 [2]: ≤ 100000 nM
- IC50 (NF-κB signaling pathway): ≤ 10000 nM

SMILES: O=C(NC/C=C/S(=O)(=O)c1ccccc1)c1cc2c([nH]c1=O)CCCC2 [Example 7, N-[(2E)-3-(benzenesulfonyl)prop-2-en-1-yl]-2-oxo-1,2,5,6,7,8-hexahydroquinoline-3-carboxamide]
- IC50 [1]: ≤ 1000 nM
- IC50 [2]: ≤ 1000 nM
- IC50 (NF-κB signaling pathway): ≤ 1000 nM

SMILES: O=C(NC/C=C/S(=O)(=O)c1ccc(F)cc1)c1cc2c([nH]c1=O)CCCC2 [Example 16, N-[(2E)-3-(4-fluorobenzenesulfonyl)prop-2-en-1-yl]-2-oxo-1,2,5,6,7,8-hexahydroquinoline-3-carboxamide]
- IC50 [1]: ≤ 100 nM
- IC50 [2]: ≤ 1000 nM
- IC50 (NF-κB signaling pathway): ≤ 1000 nM

SMILES: O=C(NC/C=C/S(=O)(=O)c1ccc(F)cc1F)c1cc(-c2ccccc2)c[nH]c1=O [Example 127, N-[(2E)-3-(2,4-difluorobenzenesulfonyl)prop-2-en-1-yl]-2-oxo-5-phenyl-1,2-dihydropyridine-3-carboxamide]
- IC50 [1]: ≤ 1000 nM
- IC50 [2]: ≤ 10000 nM
- IC50 (NF-κB signaling pathway): ≤ 1000 nM

SMILES: COc1ccc(S(=O)(=O)/C=C/CNC(=O)c2cc3c([nH]c2=O)CCCC3)cc1 [Example 40, N-[(2E)-3-(4-methoxybenzenesulfonyl)prop-2-en-1-yl]-2-oxo-1,2,5,6,7,8-hexahydroquinoline-3-carboxamide]
- IC50 [1]: ≤ 1000 nM
- IC50 [2]: ≤ 1000 nM
- IC50 (NF-κB signaling pathway): ≤ 1000 nM

SMILES: N=S(=O)(/C=C/CNC(=O)c1cc2c([nH]c1=O)CCN(C(=O)OCC1CC1)C2)c1ccc(F)cc1 (stereo not drawn) [Example 68, cyclopropylmethyl 3-{[(2E)-3-[(4-fluorophenyl)(imino)oxo-A*-sulfanyl]prop-2-en-1-yl]carbamoyl}-2-oxo-1,2,5,6,7,8-hexahydro-1,6-naphthyridine-6-carboxylate]
- IC50 [1]: ≤ 100 nM
- IC50 [2]: ≤ 10000 nM
- IC50 (NF-κB signaling pathway): ≤ 10000 nM

SMILES: CC1(C)CC1COC(=O)N1CCc2[nH]c(=O)c(C(=O)NC/C=C/S(=O)(=O)c3ccc(Cl)cc3)cc2C1 (stereo not drawn) [Example 85, (2,2-dimethylcyclopropyl)methyl 3-{[(2E)-3-(4-chlorobenzenesulfonyl)prop-2-en-1-yl]carbamoyl}-2-oxo-1,2,5,6,7,8-hexahydro-1,6-naphthyridine-6-carboxylate]
- IC50 [1]: ≤ 100 nM
- IC50 [2]: ≤ 1000 nM
- IC50 (NF-κB signaling pathway): ≤ 1000 nM

SMILES: O=C(NC/C=C/S(=O)(=O)c1ccc(F)cc1F)c1cc2c([nH]c1=O)CCCC2 [Example 31, N-[(2E)-3-(2,4-difluorobenzenesulfonyl)prop-2-en-1-yl]-2-oxo-1,2,5,6,7,8-hexahydroquinoline-3-carboxamide]
- IC50 [1]: ≤ 100 nM
- IC50 [2]: ≤ 1000 nM
- IC50 (NF-κB signaling pathway): ≤ 1000 nM

SMILES: O=C(NC/C=C/S(=O)(=O)c1ccc(Cl)cc1)c1cc2c([nH]c1=O)CCN(C(=O)OCC1CC1(F)F)C2 (stereo not drawn) [Example 86, (2,2-difluorocyclopropyl)methyl 3-{[(2E)-3-(4-chlorobenzenesulfonyl)prop-2-en-1-yl]carbamoyl}-2-oxo-1,2,5,6,7,8-hexahydro-1,6-naphthyridine-6-carboxylate]
- IC50 [1]: ≤ 100 nM
- IC50 [2]: ≤ 10000 nM
- IC50 (NF-κB signaling pathway): ≤ 1000 nM

SMILES: CN(C)c1ccc(S(=O)(=O)/C=C/CNC(=O)c2cc3c([nH]c2=O)CCCC3)cc1 [Example 54, N-[(2E)-3-[4-(dimethylamino)benzenesulfonyl]prop-2-en-1-yl]-2-oxo-1,2,5,6,7,8-hexahydroquinoline-3-carboxamide]
- IC50 [1]: ≤ 1000 nM
- IC50 [2]: ≤ 1000 nM
- IC50 (NF-κB signaling pathway): ≤ 1000 nM

SMILES: O=C(NC/C=C/S(=O)(=O)c1ccccc1)c1cc2c([nH]c1=O)CCN(C(=O)OCC1CC1(F)F)C2 (stereo not drawn) [Example 74, (2,2-difluorocyclopropyl)methyl 3-{[(2E)-3-(benzenesulfonyl)prop-2-en-1-yl]carbamoyl}-2-oxo-1,2,5,6,7,8-hexahydro-1,6-naphthyridine-6-carboxylate]
- IC50 [1]: ≤ 1000 nM
- IC50 [2]: ≤ 10000 nM
- IC50 (NF-κB signaling pathway): ≤ 1000 nM

SMILES: COc1ccc(S(=N)(=O)/C=C/CNC(=O)c2cc3c([nH]c2=O)CCN(Cc2ccccc2)C3)cc1F (stereo not drawn) [Example 153, 6-benzyl-N-[(2E)-3-[(3-fluoro-4-methoxyphenyl)(imino)oxo-A*-sulfanyl]prop-2-en-1-yl]-2-oxo-1,2,5,6,7,8-hexahydro-1,6-naphthyridine-3-carboxamide]
- IC50 [1]: ≤ 1000 nM
- IC50 [2]: ≤ 1000 nM
- IC50 (NF-κB signaling pathway): ≤ 1000 nM

SMILES: O=C(NC/C=C/S(=O)(=O)c1ccccc1)c1cc2c([nH]c1=O)CCN(C(=O)OCCc1ccc(Cl)cc1)C2 [Example 122, 2-(4-chlorophenyl)ethyl 3-{[(2E)-3-(benzenesulfonyl)prop-2-en-1-yl]carbamoyl}-2-oxo-1,2,5,6,7,8-hexahydro-1,6-naphthyridine-6-carboxylate]
- IC50 [1]: ≤ 1000 nM
- IC50 [2]: ≤ 1000 nM
- IC50 (NF-κB signaling pathway): ≤ 1000 nM

SMILES: O=C(NC/C=C\S(=O)(=O)c1ccccc1)c1cc2c([nH]c1=O)CCCC2 [Example 9, N-[(2Z)-3-(benzenesulfonyl)prop-2-en-1-yl]-2-oxo-1,2,5,6,7,8-hexahydroquinoline-3-carboxamide]
- IC50 [1]: ≤ 1000 nM
- IC50 [2]: ≤ 10000 nM
- IC50 (NF-κB signaling pathway): ≤ 10000 nM

SMILES: O=C(NC/C=C/S(=O)(=O)c1cccs1)c1cc2c([nH]c1=O)CCCC2 [Example 44, 2-oxo-N-[(2E)-3-(thiophene-2-sulfonyl)prop-2-en-1-yl]-1,2,5,6,7,8-hexahydroquinoline-3-carboxamide]
- IC50 [1]: ≤ 1000 nM
- IC50 [2]: ≤ 1000 nM
- IC50 (NF-κB signaling pathway): ≤ 1000 nM

SMILES: N=S(=O)(/C=C/CNC(=O)c1cc2c([nH]c1=O)CCCC2)c1ccc(F)cc1 (stereo not drawn) [Example 6, N-[(2E)-3-[(4-fluorophenyl)(imino)oxo-λ^6-sulfanyl]prop-2-en-1-yl]-2-oxo-1,2,5,6,7,8-hexahydroquinoline-3-carboxamide]
- IC50 [1]: ≤ 1000 nM
- IC50 [2]: ≤ 1000 nM
- IC50 (NF-κB signaling pathway): ≤ 10000 nM

SMILES: N=S(=O)(/C=C/CNC(=O)c1cc2c([nH]c1=O)CCCC2)c1ccc(Oc2ccccc2)cc1 (stereo not drawn) [Example 140, N-[(2E)-3-[imino(oxo)(4-phenoxyphenyl)-λ^6-sulfanyl]prop-2-en-1-yl]-2-oxo-1,2,5,6,7,8-hexahydroquinoline-3-carboxamide]
- IC50 [1]: ≤ 1000 nM
- IC50 [2]: ≤ 1000 nM
- IC50 (NF-κB signaling pathway): ≤ 1000 nM

SMILES: COCCS(=O)(=O)N1CCc2[nH]c(=O)c(C(=O)NC/C=C/S(=O)(=O)c3ccccc3)cc2C1 [Example 103, N-[(2E)-3-(benzenesulfonyl)prop-2-en-1-yl]-6-(2-methoxyethanesulfonyl)-2-oxo-1,2,5,6,7,8-hexahydro-1,6-naphthyridine-3-carboxamide]
- IC50 [1]: ≤ 1000 nM
- IC50 [2]: ≤ 100000 nM
- IC50 (NF-κB signaling pathway): ≤ 100000 nM

SMILES: COc1ccc(S(=N)(=O)/C=C/CNC(=O)c2cc3c([nH]c2=O)CCCC3)c(C)c1 (stereo not drawn) [Example 139, N-[(2E)-3-[imino(4-methoxy-2-methylphenyl)oxo-λ^6-sulfanyl]prop-2-en-1-yl]-2-oxo-1,2,5,6,7,8-hexahydroquinoline-3-carboxamide]
- IC50 [1]: ≤ 1000 nM
- IC50 [2]: ≤ 1000 nM
- IC50 (NF-κB signaling pathway): ≤ 1000 nM

SMILES: O=C(NC/C=C/S(=O)(=O)c1ccc(F)cc1Cl)c1cc(-c2ccccc2)c[nH]c1=O [Example 128, N-[(2E)-3-(2-chloro-4-fluorobenzenesulfonyl)prop-2-en-1-yl]-2-oxo-5-phenyl-1,2-dihydropyridine-3-carboxamide]
- IC50 [1]: ≤ 1000 nM
- IC50 [2]: ≤ 10000 nM
- IC50 (NF-κB signaling pathway): ≤ 10000 nM

SMILES: O=C(NC/C=C/S(=O)(=O)c1ccccc1)c1cc2c([nH]c1=O)CCN(C(=O)OCCF)C2 [Example 76, 2-fluoroethyl 3-{[(2E)-3-(benzenesulfonyl)prop-2-en-1-yl]carbamoyl}-2-oxo-1,2,5,6,7,8-hexahydro-1,6-naphthyridine-6-carboxylate]
- IC50 [1]: ≤ 1000 nM
- IC50 [2]: ≤ 10000 nM
- IC50 (NF-κB signaling pathway): ≤ 10000 nM

SMILES: O=C(NC/C=C/S(=O)(=O)c1ccc(Cl)cn1)c1cc2c([nH]c1=O)CCN(C(=O)OCC1CC1)C2 [Example 95, cyclopropylmethyl 3-{[(2E)-3-[(5-chloropyridin-2-yl)sulfonyl]prop-2-en-1-yl]carbamoyl}-2-oxo-1,2,5,6,7,8-hexahydro-1,6-naphthyridine-6-carboxylate]
- IC50 [1]: ≤ 100 nM
- IC50 [2]: ≤ 10000 nM
- IC50 (NF-κB signaling pathway): ≤ 1000 nM

SMILES: CC(C)(C)OC(=O)N1CCc2[nH]c(=O)c(C(=O)NC/C=C/S(=O)(=O)c3ccc(F)cc3)cc2C1 [Example 25, tert-butyl 3-{[(2E)-3-(4-fluorobenzenesulfonyl)prop-2-en-1-yl]carbamoyl}-2-oxo-1,2,5,6,7,8-hexahydro-1,6-naphthyridine-6-carboxylate]
- IC50 [1]: ≤ 100 nM
- IC50 [2]: ≤ 10000 nM
- IC50 (NF-κB signaling pathway): ≤ 1000 nM
